Measurements taken from patent publication US20220031642A1, “Niclosamide Formulations and Methods of Use” (priority 2020, published 2022).

What was measured:
SARS-CoV-2 = test: microbe, parasite or virus in culture; type: cell-based; settings: Severe acute respiratory syndrome coronavirus 2, Vero C1008; Vero E6 cells, reporter SARS-CoV-2 MOI of 0.1, luciferase activity 24 h post-infection; read-out: antiviral EC50
[1] = human, in vivo, po; cited from earlier work

O=C(Nc1ccc([N+](=O)[O-])cc1Cl)c1cc(Cl)ccc1O [niclosamide, Niclosamide]
EC50 (SARS-CoV-2): 150 nM
tmax (plasma levels peaked) [1]: 4 h
